Laboratory results taken from PubChem BioAssay AID256 (DTP/NCI, 2004).
Where “and” joins values, the source holds several entries; their conditions need not be identical. Equal values may be shown once. Inconclusive results and toxic doses are left out. Rule for the calls: active = survival T/C of 150% or more; inactive = T/C below 125% in these data.

System: CD2F1 mice, L1210 leukemia ip, survival T/C
Assay: NCI In Vivo Anticancer Drug Screen. Data for tumor model L1210 Leukemia (intraperitoneal) in CD2F1 (CDF1) mice
Settings: higher = longer survival
Summary of the method: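 Read-out first: treated-group measurement over vehicle-control measurement, expressed as a ratio. Animals bore a transplanted tumor line and were dosed with compound or vehicle.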

[1] = endpoint: mean survival time, dose: 25.0 mg/kg/injection, schedule: Q04DX002 (ip), vehicle: saline with Tween-80
[2] = endpoint: mean survival time, dose: 100.0 mg/kg/injection, schedule: Q01DX009 (ip), vehicle: saline
[3] = endpoint: mean survival time, dose: 200.0 mg/kg/injection, schedule: Q01DX009 (ip), vehicle: saline
[4] = endpoint: mean survival time, dose: 400.0 mg/kg/injection, schedule: Q01DX009 (ip), vehicle: saline
[5] = endpoint: mean survival time, dose: 100.0 mg/kg/injection, schedule: Q01DX009 (ip), vehicle: saline with Tween-80
[6] = endpoint: mean survival time, dose: 200.0 mg/kg/injection, schedule: Q01DX009 (ip), vehicle: saline with Tween-80
[7] = endpoint: mean survival time, dose: 400.0 mg/kg/injection, schedule: Q01DX009 (ip), vehicle: saline with Tween-80
[8] = endpoint: mean survival time, dose: 100.0 mg/kg/injection, schedule: Q01DX001 (ip), vehicle: saline with Tween-80
[9] = endpoint: mean survival time, dose: 100.0 mg/kg/injection, schedule: Q04DX002 (ip), vehicle: saline with Tween-80
[10] = endpoint: mean survival time, dose: 200.0 mg/kg/injection, schedule: Q01DX001 (ip), vehicle: saline with Tween-80
[11] = endpoint: mean survival time, dose: 200.0 mg/kg/injection, schedule: Q04DX002 (ip), vehicle: saline with Tween-80
[12] = endpoint: mean survival time, dose: 400.0 mg/kg/injection, schedule: Q01DX001 (ip), vehicle: saline with Tween-80
[13] = endpoint: mean survival time, dose: 400.0 mg/kg/injection, schedule: Q04DX002 (ip), vehicle: saline with Tween-80
[14] = endpoint: mean survival time, dose: 100.0 mg/kg/injection, schedule: Q04DX003 (ip), vehicle: saline with Tween-80
[15] = endpoint: mean survival time, dose: 200.0 mg/kg/injection, schedule: Q04DX003 (ip), vehicle: saline with Tween-80
[16] = endpoint: mean survival time, dose: 400.0 mg/kg/injection, schedule: Q04DX003 (ip), vehicle: saline with Tween-80
[17] = endpoint: mean survival time, dose: 75.0 mg/kg/injection, schedule: Q01DX001 (ip), vehicle: saline
[18] = endpoint: mean survival time, dose: 150.0 mg/kg/injection, schedule: Q01DX001 (ip), vehicle: saline
[19] = endpoint: mean survival time, dose: 300.0 mg/kg/injection, schedule: Q01DX001 (ip), vehicle: saline

Measured: T/C

CCC(=O)O.CCC(=O)O.CCC(=O)O.CCC(=O)O.O=P1(N(CCCl)CCCl)NCCCO1.O=P1(N(CCCl)CCCl)NCCCO1.[Rh].[Rh] (centres undefined)
inactive: endpoint: mean survival time, dose: 0.5 mg/kg/injection, schedule: Q01DX001 (ip), vehicle: water 92 % of control | endpoint: mean survival time, dose: 1.0 mg/kg/injection, schedule: Q01DX001 (ip), vehicle: water 92 % of control | endpoint: mean survival time, dose: 2.0 mg/kg/injection, schedule: Q01DX001 (ip), vehicle: water 102 % of control | endpoint: mean survival time, dose: 4.0 mg/kg/injection, schedule: Q01DX001 (ip), vehicle: water 107 % of control

NC(CSS(=O)(=O)O)=NCCc1cccs1
inactive: endpoint: mean survival time, dose: 12.5 mg/kg/injection, schedule: Q04DX002 (ip), vehicle: saline with Tween-80 97 % of control | [1] 105 % of control

CCN=C(NCC)S(=O)O
inactive: [2] 90 % of control | [3] 97 % of control | [4] 103 % of control

COC(=O)C(Br)C(OC)c1ccc(C)cc1 (centres undefined)
inactive: [5] 94 % of control | endpoint: mean survival time, dose: 100.0 mg/kg/injection, schedule: Q04DX003 (ip), vehicle: saline sonified 95 % of control | [6] 96 % of control | endpoint: mean survival time, dose: 200.0 mg/kg/injection, schedule: Q04DX003 (ip), vehicle: saline sonified 91 % of control | [7] 90 % of control | endpoint: mean survival time, dose: 400.0 mg/kg/injection, schedule: Q04DX003 (ip), vehicle: saline sonified 101 % of control

O=C1SC(c2ccccc2)=S=C1c1ccccc1
inactive: endpoint: median survival time, dose: 25.0 mg/kg/injection, schedule: Q01DX009 (ip), vehicle: saline with Tween-80 100 % of control | endpoint: median survival time, dose: 50.0 mg/kg/injection, schedule: Q01DX009 (ip), vehicle: saline with Tween-80 105 % of control | endpoint: median survival time, dose: 100.0 mg/kg/injection, schedule: Q01DX009 (ip), vehicle: saline with Tween-80 103 % of control | endpoint: median survival time, dose: 200.0 mg/kg/injection, schedule: Q01DX009 (ip), vehicle: saline with Tween-80 97 % of control | endpoint: median survival time, dose: 400.0 mg/kg/injection, schedule: Q01DX009 (ip), vehicle: saline with Tween-80 101 % of control

O=c1[nH]cnc2c1ncn2CCCCCO
inactive: [8] 95 % of control | [9] 97 % of control | [10] 100 % of control | [11] 102 % of control | [12] 95 % of control | [13] 94 % of control

CCOc1nc(=O)n(C2OC(CO)C(O)C2O)s1 (centres undefined)
inactive: endpoint: mean survival time, dose: 12.5 mg/kg/injection, schedule: Q01DX005 (ip), vehicle: distilled water + Tween-80 100 % of control | endpoint: mean survival time, dose: 25.0 mg/kg/injection, schedule: Q01DX005 (ip), vehicle: distilled water + Tween-80 101 % of control | endpoint: mean survival time, dose: 50.0 mg/kg/injection, schedule: Q01DX005 (ip), vehicle: distilled water + Tween-80 101 % of control | endpoint: mean survival time, dose: 100.0 mg/kg/injection, schedule: Q01DX005 (ip), vehicle: distilled water + Tween-80 97 % of control | endpoint: mean survival time, dose: 200.0 mg/kg/injection, schedule: Q01DX005 (ip), vehicle: distilled water + Tween-80 102 % of control

C/C(=N\Nc1ccc2ccccc2n1)c1ccccc1O
inactive: [9] 98 % of control | [11] 98 % of control | [13] 110 % of control

O=C(CCC(NC(=O)OCc1ccccc1)C(=O)O)OCc1ccccc1 (centres undefined)
inactive: [14] 100 % of control | [15] 101 % of control | [16] 94 % of control

C[n+]1ccc(CCC(=O)Nc2ccccc2)cc1
inactive: [14] 100 % of control | [15] 100 % of control

CC(C)NCc1ccc2c(c1)OCO2
inactive: [17] 98 % of control | [18] 101 % of control

N=c1c2ncn(C3OC(CO)C(O)C3O)c2ncn1Cc1ccc([N+](=O)[O-])cc1 (centres undefined)
inactive: endpoint: mean survival time, dose: 100.0 mg/kg/injection, schedule: Q01DX001 (ip), vehicle: carboxymethylcellulose (CMC) 97 % of control | endpoint: mean survival time, dose: 200.0 mg/kg/injection, schedule: Q01DX001 (ip), vehicle: carboxymethylcellulose (CMC) 104 % of control | endpoint: mean survival time, dose: 400.0 mg/kg/injection, schedule: Q01DX001 (ip), vehicle: carboxymethylcellulose (CMC) 97 % of control

CCOC(=O)/C=C/c1ccc2c(c1)OCO2
inactive: [14] 97 % of control | [15] 94 % of control | [16] 103 % of control

CC(=O)OC1CCC2(C)C3=CCC4(C)C(C(C)/C=C\C(C)C(C)C)CCC4C34C=CC2(C1)C1C(=O)OC(=O)C14 (centres undefined)
inactive: endpoint: mean survival time, dose: 50.0 mg/kg/injection, schedule: Q01DX001 (ip), vehicle: saline with Tween-80 97 % of control | [8] 91 % of control | [9] 86 % of control | [10] 95 % of control

CC(C)CC(NC(=O)c1ccccc1)C(=O)O (centres undefined)
inactive: [14] 95 % of control | [15] 95 % of control | [16] 101 % of control

OCc1ccc(Cl)cc1Cl
inactive: [5] 93 % of control | [6] 92 % of control

O=C1/C(=C/c2cccc([N+](=O)[O-])c2)CCc2ccccc21
inactive: [2] 94 % of control | [3] 97 % of control | [4] 91 % of control

COc1ccc(CCNC(=S)NN)cc1OC
inactive: [1] 106 % of control | endpoint: mean survival time, dose: 50.0 mg/kg/injection, schedule: Q04DX002 (ip), vehicle: saline with Tween-80 95 % of control | [9] 114 % of control | [11] 103 % of control

CC1(C)CC(=O)C2=C(C1)OC1=C(C(=O)CC(C)(C)C1)C2c1ccccc1[N+](=O)[O-]
inactive: [5] 100 % of control | [6] 95 % of control | [7] 94 % of control

Nc1cc2n[nH]nc2c(=O)[nH]1
inactive: endpoint: median survival time, dose: 50.0 mg/kg/injection, schedule: Q01DX005 (ip), vehicle: saline with Tween-80 107 % of control | endpoint: median survival time, dose: 100.0 mg/kg/injection, schedule: Q01DX005 (ip), vehicle: saline with Tween-80 101 % of control | endpoint: median survival time, dose: 200.0 mg/kg/injection, schedule: Q01DX005 (ip), vehicle: saline with Tween-80 100 % of control

O=C(Nc1ccc(Cl)cc1)Nc1ccccc1F
inactive: [5] 97 % of control | [6] 103 % of control | [7] 105 % of control

CC(=O)Nc1nc(C)cs1
inactive: [17] 98 % of control | [18] 97 % of control | [19] 98 % of control

C=C1C(=O)O[C@H]2C[C@@]3(C)[C@H](O)CCC(=C)[C@@H]3[C@@H](OC(C)=O)[C@H]12
inactive: [17] 102 % of control | [18] 106 % of control | [19] 103 % of control

COCC1OC(OC)C(OC)C(OC)C1OC (centres undefined)
inactive: [5] 94 % of control | [6] 102 % of control | [7] 105 % of control

S=C(S)N1CCCC1
inactive: endpoint: mean survival time, dose: 100.0 mg/kg/injection, schedule: Q04DX003 (ip), vehicle: saline 95 % of control | endpoint: mean survival time, dose: 200.0 mg/kg/injection, schedule: Q04DX003 (ip), vehicle: saline 95 % of control | endpoint: mean survival time, dose: 400.0 mg/kg/injection, schedule: Q04DX003 (ip), vehicle: saline 92 % of control

CC(=O)OCC1OC([S-])C(OC(C)=O)C(OC(C)=O)C1OC(C)=O.CC[PH+](CC)CC.CC[PH+](CC)CC.[Au].[Au] (centres undefined)
inactive: endpoint: mean survival time, dose: 0.62 mg/kg/injection, schedule: Q01DX009 (ip), vehicle: Klucel (hydroxypropylcellulose) (HPC) 100 % of control and 102 % of control | endpoint: mean survival time, dose: 1.25 mg/kg/injection, schedule: Q01DX009 (ip), vehicle: Klucel (hydroxypropylcellulose) (HPC) 100 % of control and 104 % of control | endpoint: mean survival time, dose: 2.5 mg/kg/injection, schedule: Q01DX009 (ip), vehicle: Klucel (hydroxypropylcellulose) (HPC) 96 % of control and 102 % of control | endpoint: mean survival time, dose: 5.0 mg/kg/injection, schedule: Q01DX009 (ip), vehicle: Klucel (hydroxypropylcellulose) (HPC) 97 % of control and 98 % of control | endpoint: mean survival time, dose: 10.0 mg/kg/injection, schedule: Q01DX009 (ip), vehicle: Klucel (hydroxypropylcellulose) (HPC) 94 % of control and 97 % of control

CC(=O)OCC(OC(C)=O)C1OC(OC2CCCCC2)C(OC(C)=O)C(OC(C)=O)C1OC(C)=O (centres undefined)
inactive: [8] 93 % of control | [10] 98 % of control | [12] 88 % of control

CC(C)C(C)c1ccccc1 (centres undefined)
inactive: endpoint: mean survival time, dose: 100.0 mg/kg/injection, schedule: Q01DX001 (ip), vehicle: saline 100 % of control | endpoint: mean survival time, dose: 200.0 mg/kg/injection, schedule: Q01DX001 (ip), vehicle: saline 100 % of control | endpoint: mean survival time, dose: 400.0 mg/kg/injection, schedule: Q01DX001 (ip), vehicle: saline 98 % of control

CCCCCCCCCCOC(=O)COc1ccc(C(C)(C)C)cc1
inactive: endpoint: mean survival time, dose: 12.5 mg/kg/injection, schedule: Q01DX009 (ip), vehicle: saline with Tween-80 106 % of control | endpoint: mean survival time, dose: 25.0 mg/kg/injection, schedule: Q01DX009 (ip), vehicle: saline with Tween-80 97 % of control | endpoint: mean survival time, dose: 50.0 mg/kg/injection, schedule: Q01DX009 (ip), vehicle: saline with Tween-80 97 % of control

O=C(O)c1cccnc1F
inactive: [14] 94 % of control | [15] 98 % of control | [16] 96 % of control

CC(=O)OC1C=CS(=O)(=O)C1 (centres undefined)
inactive: [14] 108 % of control | [15] 103 % of control | [16] 105 % of control
